Laboratory results published in patent publication US12448399B2, “Cereblon-based KRAS degrading PROTACs and uses related thereto” (Arvinas Operations, Inc., priority 2023, dated 2025).

Target: T1, KRas-G12D (Homo sapiens, UniProt P01116, G12D)
T1 construct: insert the HiBiT tag onto the N-terminus of one or more of the endogenous KRas alleles; host or cells: AsPC-1 HiBiT-KRasG12D knock-in clone (one tagged allele, two untagged KRasG12D alleles)
Assay: HiBiT Degradation Assay (G12D), AsPC-1 HiBiT-KRasG12D cells, 24 hr
Type: cell-based
Details: for Dmax: ASPC1, AsPC-1 cells, maximum degradation observed; for DC50: AsPC-1 cells
Summary of the method: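 Degradation was read after 24 hr compound exposure (0.5% DMSO, 37° C) by Nano-Glo HiBiT lytic luminescence in AsPC-1 cells carrying a HiBiT tag on one of three KRasG12D alleles. Signal relative to DMSO gave DC50 and Dmax by 4-parameter fit; alamar blue fluorescence monitored cytotoxicity.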

T1 sequence (P01116 1-188 isoform P01116-2 G12D): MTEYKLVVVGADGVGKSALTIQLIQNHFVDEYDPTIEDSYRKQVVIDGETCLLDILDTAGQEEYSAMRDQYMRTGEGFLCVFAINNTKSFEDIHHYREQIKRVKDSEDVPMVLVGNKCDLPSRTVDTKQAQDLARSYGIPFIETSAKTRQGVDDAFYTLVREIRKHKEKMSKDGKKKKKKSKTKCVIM

SMILES | Dmax [%] | DC50 [µM]
C#Cc1c(F)ccc2cc(O)cc(-c3ncc4c(N5CC6CCC(C5)N6)nc(OCCN5CCC(CCC6CCN(c7cccc8c7CN(C7CCC(=O)NC7=O)C8=O)CC6)CC5)nc4c3F)c12 (stereo not drawn) [Compound 128, 3-(4-{4-[2-(1-{2-[(4-{3,8-diazabicyclo[3.2.1]octan-3-yl}-7-(8-ethynyl-7-fluoro-3-hydroxynaphthalen-1-yl)-8-fluoropyrido[4,3-d]pyrimidin-2-yl)oxy]ethyl}piperidin-4-yl)ethyl]piperidin-1-yl}-1-oxo-2,3-dihydro-1H-isoindol-2-yl)piperidine-2,6-dione] | > 70 | 0.1 to 5.25
C#Cc1c(F)ccc2cc(O)cc(-c3ncc4c(N5CC6CCC(C5)N6)nc(OCCN5CCC(CC6CCN(c7cccc8c7n(C)c(=O)n8C7CCC(=O)NC7=O)CC6)CC5)nc4c3F)c12 (stereo not drawn) [Compound 129, 3-(4-{4-[(1-{2-[(4-{3,8-diazabicyclo[3.2.1]octan-3-yl}-7-(8-ethynyl-7-fluoro-3-hydroxynaphthalen-1-yl)-8-fluoropyrido[4,3-d]pyrimidin-2-yl)oxy]ethyl}piperidin-4-yl)methyl]piperidin-1-yl}-3-methyl-2-oxo-2,3-dihydro-1H-1,3-benzodiazol-1-yl)piperidine-2,6-dione] | > 70 | < 5.1
C#Cc1c(F)ccc2cc(O)cc(-c3ncc4c(N5CC6CCC(C5)N6)nc(OCCN5CCC(CC6CCN(CC7CCN(c8cc(F)cc9c8CN(C8CCC(=O)NC8=O)C9=O)CC7)CC6)CC5)nc4c3F)c12 (stereo not drawn) [Compound 130, 3-{4-[4-({4-[(1-{2-[(4-{3,8-diazabicyclo[3.2.1]octan-3-yl}-7-(8-ethynyl-7-fluoro-3-hydroxynaphthalen-1-yl)-8-fluoropyrido[4,3-d]pyrimidin-2-yl)oxy]ethyl}piperidin-4-yl)methyl]piperidin-1-yl}methyl)piperidin-1-yl]-6-fluoro-1-oxo-2,3-dihydro-1H-isoindol-2-yl}piperidine-2,6-dione] | > 70 | < 5.1
C#Cc1c(F)ccc2cc(O)cc(-c3ncc4c(N5CC6CCC(C5)N6)nc(OCCN5CCC(CC6(F)CCN(CC7CCN(c8cccc9c8CN(C8CCC(=O)NC8=O)C9=O)CC7)CC6)CC5)nc4c3F)c12 (stereo not drawn) [Compound 131, 3-{4-[4-({4-[(1-{2-[(4-{3,8-diazabicyclo[3.2.1]octan-3-yl}-7-(8-ethynyl-7-fluoro-3-hydroxynaphthalen-1-yl)-8-fluoropyrido[4,3-d]pyrimidin-2-yl)oxy]ethyl}piperidin-4-yl)methyl]-4-fluoropiperidin-1-yl}methyl)piperidin-1-yl]-1-oxo-2,3-dihydro-1H-isoindol-2-yl}piperidine-2,6-dione] | > 70 | < 5.1
C#Cc1c(F)ccc2cc(O)cc(-c3ncc4c(N5CC6CCC(C5)N6)nc(OCCN5CCC6(CC5)CCN(CC5CCN(c7cccc8c7CN(C7CCC(=O)NC7=O)C8=O)CC5)CC6)nc4c3F)c12 (stereo not drawn) [Compound 132, 3-(4-{4-[(9-{2-[(4-{3,8-diazabicyclo[3.2.1]octan-3-yl}-7-(8-ethynyl-7-fluoro-3-hydroxynaphthalen-1-yl)-8-fluoropyrido[4,3-d]pyrimidin-2-yl)oxy]ethyl}-3,9-diazaspiro[5.5]undecan-3-yl)methyl]piperidin-1-yl}-1-oxo-2,3-dihydro-1H-isoindol-2-yl)piperidine-2,6-dione] | > 70 | < 5.1
C#Cc1c(F)ccc2cc(O)cc(-c3ncc4c(N5CC6CCC(C5)N6)nc(OCCN5CCC(CC6CCN(CC7CCN(c8cccc9c8n(C)c(=O)n9C8CCC(=O)NC8=O)CC7)CC6)CC5)nc4c3F)c12 (stereo not drawn) [Compound 133, 3-{4-[4-({4-[(1-{2-[(4-{3,8-diazabicyclo[3.2.1]octan-3-yl}-7-(8-ethynyl-7-fluoro-3-hydroxynaphthalen-1-yl)-8-fluoropyrido[4,3-d]pyrimidin-2-yl)oxy]ethyl}piperidin-4-yl)methyl]piperidin-1-yl}methyl)piperidin-1-yl]-3-methyl-2-oxo-2,3-dihydro-1H-1,3-benzodiazol-1-yl}piperidine-2,6-dione] | > 70 | < 5.1
C#Cc1c(F)ccc2cc(O)cc(-c3nc(N4CC5CCC(C4)N5)c4cnc(OCCN5CCC6(CC5)CCN(CC5CCN(c7ccc8c(c7)CN(C7CCC(=O)NC7=O)C8=O)CC5)CC6)nc4c3F)c12 (stereo not drawn) [Compound 134] | > 70 | < 5.1
C#Cc1c(F)ccc2cc(O)cc(-c3ncc4c(N5CC6CCC(C5)N6)nc(OCCN5CCC6(CC5)CN(CC5CCN(c7cccc8c7CN(C7CCC(=O)NC7=O)C8=O)CC5)C6)nc4c3F)c12 (stereo not drawn) [Compound 135, 3-(4-{4-[(7-{2-[(4-{3,8-diazabicyclo[3.2.1]octan-3-yl}-7-(8-ethynyl-7-fluoro-3-hydroxynaphthalen-1-yl)-8-fluoropyrido[4,3-d]pyrimidin-2-yl)oxy]ethyl}-2,7-diazaspiro[3.5]nonan-2-yl)methyl]piperidin-1-yl}-1-oxo-2,3-dihydro-1H-isoindol-2-yl)piperidine-2,6-dione] | – | 0.25 to 1
C#Cc1c(F)ccc2cc(O)cc(-c3ncc4c(N5CC6CCC(C5)N6)nc(OCCN5CCC(CN6CCN(CC7CCN(c8cccc9c8CN(C8CCC(=O)NC8=O)C9=O)CC7)CC6)CC5)nc4c3F)c12 (stereo not drawn) [Compound 136, 3-{4-[4-({4-[(1-{2-[(4-{3,8-diazabicyclo[3.2.1]octan-3-yl}-7-(8-ethynyl-7-fluoro-3-hydroxynaphthalen-1-yl)-8-fluoropyrido[4,3-d]pyrimidin-2-yl)oxy]ethyl}piperidin-4-yl)methyl]piperazin-1-yl}methyl)piperidin-1-yl]-1-oxo-2,3-dihydro-1H-isoindol-2-yl}piperidine-2,6-dione] | > 70 | < 5.1
CCc1c(F)ccc2cc(O)cc(-c3ncc4c(N5CC6CCC(C5)N6)nc(OCCN5CCC(CC6CCN(CC7CCN(c8cccc9c8CN(C8CCC(=O)NC8=O)C9=O)CC7)CC6)CC5)nc4c3F)c12 (stereo not drawn) [Compound 137, 3-{4-[4-({4-[(1-{2-[(4-{3,8-diazabicyclo[3.2.1]octan-3-yl}-7-(8-ethyl-7-fluoro-3-hydroxynaphthalen-1-yl)-8-fluoropyrido[4,3-d]pyrimidin-2-yl)oxy]ethyl}piperidin-4-yl)methyl]piperidin-1-yl}methyl)piperidin-1-yl]-1-oxo-2,3-dihydro-1H-isoindol-2-yl}piperidine-2,6-dione] | – | < 5.1
C#Cc1c(F)ccc2cc(O)cc(-c3ncc4c(N5CC6CCC(C5)N6)nc(OCCN5CCC(CC6CCN(CC7CCN(c8ccc9c(c8)CN(C8CCC(=O)NC8=O)C9=O)CC7)CC6)CC5)nc4c3F)c12 (stereo not drawn) [Compound 138] | > 70 | < 5.1
CCc1cccc2cc(O)cc(-c3ncc4c(N5CC6CCC(C5)N6)nc(OC[C@@H]5C[C@@H](OC6CCN(CC7CCN(c8cccc9c8CN(C8CCC(=O)NC8=O)C9=O)CC7)CC6)CN5C)nc4c3F)c12 (stereo partly drawn) [Compound 139, 3-(4-{4-[(4-{[(3R,5S)-5-{[(4-{3,8-diazabicyclo[3.2.1]octan-3-yl}-7-(8-ethyl-3-hydroxynaphthalen-1-yl)-8-fluoropyrido[4,3-d]pyrimidin-2-yl)oxy]methyl}-1-methylpyrrolidin-3-yl]oxy}piperidin-1-yl)methyl]piperidin-1-yl}-1-oxo-2,3-dihydro-1H-isoindol-2-yl)piperidine-2,6-dione] | > 70 | < 5.1
C#Cc1c(F)ccc2cc(O)cc(-c3ncc4c(N5CC6CCC(C5)N6)nc(OCCN5CCC(CN6CC7(CCN(c8cccc9c8CN(C8CCC(=O)NC8=O)C9=O)CC7)C6)CC5)nc4c3F)c12 (stereo not drawn) [Compound 140, 3-(4-{2-[(1-{2-[(4-{3,8-diazabicyclo[3.2.1]octan-3-yl}-7-(8-ethynyl-7-fluoro-3-hydroxynaphthalen-1-yl)-8-fluoropyrido[4,3-d]pyrimidin-2-yl)oxy]ethyl}piperidin-4-yl)methyl]-2,7-diazaspiro[3.5]nonan-7-yl}-1-oxo-2,3-dihydro-1H-isoindol-2-yl)piperidine-2,6-dione] | – | 0.25 to 1
CCc1cccc2cc(O)cc(-c3ncc4c(N5CC6CCC(C5)N6)nc(OCCN5CCC6(CC5)CN(c5cccc7c5CN(C5CCC(=O)NC5=O)C7=O)C6)nc4c3F)c12 (stereo not drawn) [Compound 141] | – | > 1
O=C1CCC(N2Cc3c(ccc(N4CCC(CN5CCC(CC6CCN(CCOc7nc(N8CC9CCC(C8)N9)c8cnc(-c9cc(O)cc(Cl)c9C9CC9)c(F)c8n7)CC6)CC5)CC4)c3F)C2=O)C(=O)N1 (stereo not drawn) [Compound 142] | > 70 | < 5.1
C#Cc1c(F)ccc2cccc(-c3ncc4c(N5CC6CCC(C5)N6)nc(OC[C@]56CCCN5[C@H](CN5CCN(CC7CCN(c8ccc9c(c8)CN(C8CCC(=O)NC8=O)C9=O)CC7)CC5)CC6)nc4c3F)c12 (stereo partly drawn) [Compound 143] | – | < 5.1
C#Cc1c(F)ccc2cccc(-c3ncc4c(N5CC6CCC(C5)N6)nc(OC[C@@H]5C[C@@H](OC6CCN(CC7CCN(c8ccc9c(c8)CN(C8CCC(=O)NC8=O)C9=O)CC7)CC6)CN5C)nc4c3F)c12 (stereo partly drawn) [Compound 144] | – | < 5.1
C#Cc1c(F)ccc2cccc(-c3ncc4c(N5CC6CCC(C5)N6)nc(OC[C@]56CCCN5[C@H](CN5CCN(c7ccc8c(c7)CN(C7CCC(=O)NC7=O)C8=O)CC5)CC6)nc4c3F)c12 (stereo partly drawn) [Compound 145] | > 70 | 0.1 to 5.25
C#Cc1c(F)ccc2cccc(-c3ncc4c(N5CC6CCC(C5)N6)nc(OC[C@@]56CCCN5[C@H](CN5CCN(c7ccc8c(c7)CN(C7CCC(=O)NC7=O)C8=O)CC5)CC6)nc4c3F)c12 (stereo partly drawn) [Compound 146] | – | 0.25 to 1
C#Cc1c(F)ccc2cccc(-c3ncc4c(N5CC6CCC(C5)N6)nc(OC[C@@]56CCCN5[C@H](CN5CCN(CC7CCN(c8ccc9c(c8)CN(C8CCC(=O)NC8=O)C9=O)CC7)CC5)CC6)nc4c3F)c12 (stereo partly drawn) [Compound 147] | > 70 | < 5.1
